According to patent publication EP0075029A1, “AGENT FOR TREATING CHRONIC OBLITERATIVE LUNG DISEASE” (priority 1981, dated 1982):
Counter-ions that a name gives are not always drawn.

How the values were obtained:
[1] = test system: blood-perfused trachea in situ; test: Blood-perfused trachea in situ (Himori and Taira): tracheal blood flow and inside pressure of the trachea; type: in vivo; details: intraarterial injection, dogs
Description: The cervix of each dog was medisected to expose the pharynx and the upper part of the trachea.
The blood was introduced from the femoral artery by a peristaltic pump, and a part of the blood stream was by-passed to the downstream of the femoral artery through a Starling's air resistance tube provided parallel to the vascular bed of the trachea, thereby performing the perfusion under a constant pressure. The pressure of the perfusion was kept a little higher than the mean aortic blood pressure.
On the other hand, water was placed into the cuff of a tracheal tube equipped with a cuff, and the tube was inserted into the trachea. Then, the inside pressure of the cuff was measured by a pressure transducer to determine the inside pressure of the trachea as follows. Initially, water was placed in the cuff in such a manner that the static inside pressure of the trachea was about 40 cm H20. During the experiment, the tonus (the inside pressure of the trachea) of the tracheal smooth muscles in stationary phases was maintained by continuous intraarterial injections of 3 pg each of neostigmine into the vascular bed of the trachea at 30-minute intervals.
As an index of the selectivity of the dilating activity for trachea, the ratio of the increase of the blood flow in the trachea to the decrease of the inside pressure of the trachea was determined.

bronchi in situ = test: animal or person; details: Canis lupus familiaris, iv, read-out: Percent inhibition
Protocol: The experiment was carried out in accordance with the Konzett-R6essler's method [Konzett, H. and Roessler, R: Arch. Exp. Pathol.
Six mongrel adult dogs were anesthetized with pentobarbital sodium (30 mg/kg). A tracheal cannula was inserted, and under artificial respiration, holes were incised in the right and left pleurae to equalize the pressure of the pleural cavity to the atmospheric pressure. The amount of air which overflowed by inspiration against a pressure of 10±1 cm H20 applied from the branch of the cannula was measured by a pneumotachograph.

Structure (SMILES)	effect on blood flow in the trachea and inside pressure of the trachea [1]	inhibition at 3 mg/kg (bronchi in situ)
CC(C)NCC(O)c1ccc(O)c(O)c1 (single isomer, unassigned; (-)) [isoproterenol, (-) isoproterenol hydrochloride]	increased the blood flow in the trachea and reduced the inside pressure of the trachea in a dose dependent manner	–
Cn1c(=O)c2[nH]cnc2n(C)c1=O [Theophylline, theophylline]	increased the blood flow in the trachea and reduced the inside pressure of the trachea in a dose dependent manner	56%
